Data published in ChEMBL document CHEMBL3352376, “Amine substitution of quinazolinones leads to selective nanomolar AChE inhibitors with 'inverted' binding mode” (Bioorg Med Chem, 2014).
Values joined by “and” are separate entries in the source; they are usually repeats but may differ in a detail not shown here. Equal values may be shown once. Active and inactive are the calls of the source. The calls are words filed in the database; no cut-off is given here.

Tests used:
Acetylcholinesterase [1] = target: T1, Acetylcholinesterase (Homo sapiens, UniProt P22303)
T1 sequence (P22303 whole entry): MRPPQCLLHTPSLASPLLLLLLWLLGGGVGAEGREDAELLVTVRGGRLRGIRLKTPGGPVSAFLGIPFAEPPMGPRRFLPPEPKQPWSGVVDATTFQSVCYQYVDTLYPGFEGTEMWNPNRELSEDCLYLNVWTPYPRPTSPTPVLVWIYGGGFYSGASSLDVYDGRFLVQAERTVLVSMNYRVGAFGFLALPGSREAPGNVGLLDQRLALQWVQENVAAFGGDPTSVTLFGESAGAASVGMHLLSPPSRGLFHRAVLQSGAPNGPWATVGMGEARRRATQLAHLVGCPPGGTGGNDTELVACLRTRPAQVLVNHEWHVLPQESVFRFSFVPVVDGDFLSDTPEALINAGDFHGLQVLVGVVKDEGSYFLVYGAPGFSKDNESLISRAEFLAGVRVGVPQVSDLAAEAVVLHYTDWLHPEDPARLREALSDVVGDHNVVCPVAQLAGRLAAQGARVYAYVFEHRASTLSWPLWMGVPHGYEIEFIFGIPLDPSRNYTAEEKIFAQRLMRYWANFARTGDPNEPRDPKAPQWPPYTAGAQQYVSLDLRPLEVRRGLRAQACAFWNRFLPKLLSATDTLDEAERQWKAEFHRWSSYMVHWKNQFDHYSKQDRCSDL

Acetylcholinesterase [2] = target: Acetylcholinesterase (Electrophorus electricus, UniProt O42275)
Sequence of Acetylcholinesterase (Electrophorus electricus, UniProt O42275) (O42275 whole entry): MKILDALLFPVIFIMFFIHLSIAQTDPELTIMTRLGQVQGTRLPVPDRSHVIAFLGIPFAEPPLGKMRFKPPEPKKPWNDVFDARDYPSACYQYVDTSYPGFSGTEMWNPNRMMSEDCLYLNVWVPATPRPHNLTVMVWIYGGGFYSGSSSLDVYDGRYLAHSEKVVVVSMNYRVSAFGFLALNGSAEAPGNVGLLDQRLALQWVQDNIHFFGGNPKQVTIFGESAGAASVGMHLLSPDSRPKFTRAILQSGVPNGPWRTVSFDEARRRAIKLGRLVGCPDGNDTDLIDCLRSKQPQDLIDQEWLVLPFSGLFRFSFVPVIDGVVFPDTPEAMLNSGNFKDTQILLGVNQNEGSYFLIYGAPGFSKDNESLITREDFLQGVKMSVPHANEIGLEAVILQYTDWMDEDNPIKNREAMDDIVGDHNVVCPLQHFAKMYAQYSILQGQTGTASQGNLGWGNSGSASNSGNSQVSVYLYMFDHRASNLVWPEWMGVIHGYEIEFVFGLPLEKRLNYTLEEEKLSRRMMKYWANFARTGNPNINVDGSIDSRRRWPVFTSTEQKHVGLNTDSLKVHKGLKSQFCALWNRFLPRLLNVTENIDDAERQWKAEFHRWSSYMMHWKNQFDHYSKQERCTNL

Cholinesterase = Cholinesterase (Equus caballus, UniProt P81908)
Sequence of Cholinesterase (P81908 whole entry): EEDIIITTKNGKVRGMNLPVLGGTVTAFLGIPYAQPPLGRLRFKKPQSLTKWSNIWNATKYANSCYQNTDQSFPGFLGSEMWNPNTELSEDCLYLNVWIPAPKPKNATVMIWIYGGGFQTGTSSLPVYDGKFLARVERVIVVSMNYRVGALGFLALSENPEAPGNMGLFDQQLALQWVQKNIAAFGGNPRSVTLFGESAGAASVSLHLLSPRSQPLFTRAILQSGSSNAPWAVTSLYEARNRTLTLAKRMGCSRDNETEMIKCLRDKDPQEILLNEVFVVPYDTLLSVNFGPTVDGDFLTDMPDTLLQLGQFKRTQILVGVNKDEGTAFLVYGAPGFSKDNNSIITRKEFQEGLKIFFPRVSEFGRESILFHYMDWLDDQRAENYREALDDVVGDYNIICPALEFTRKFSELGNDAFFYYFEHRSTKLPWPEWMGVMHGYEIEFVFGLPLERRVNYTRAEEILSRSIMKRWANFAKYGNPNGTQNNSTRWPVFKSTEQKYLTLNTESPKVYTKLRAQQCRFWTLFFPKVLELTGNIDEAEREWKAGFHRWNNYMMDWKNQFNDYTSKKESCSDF

Histamine H3 receptor = Histamine H3 receptor (Homo sapiens, UniProt Q9Y5N1); assay: Inhibition of human H3 receptor
Sequence of Histamine H3 receptor (Q9Y5N1 whole entry): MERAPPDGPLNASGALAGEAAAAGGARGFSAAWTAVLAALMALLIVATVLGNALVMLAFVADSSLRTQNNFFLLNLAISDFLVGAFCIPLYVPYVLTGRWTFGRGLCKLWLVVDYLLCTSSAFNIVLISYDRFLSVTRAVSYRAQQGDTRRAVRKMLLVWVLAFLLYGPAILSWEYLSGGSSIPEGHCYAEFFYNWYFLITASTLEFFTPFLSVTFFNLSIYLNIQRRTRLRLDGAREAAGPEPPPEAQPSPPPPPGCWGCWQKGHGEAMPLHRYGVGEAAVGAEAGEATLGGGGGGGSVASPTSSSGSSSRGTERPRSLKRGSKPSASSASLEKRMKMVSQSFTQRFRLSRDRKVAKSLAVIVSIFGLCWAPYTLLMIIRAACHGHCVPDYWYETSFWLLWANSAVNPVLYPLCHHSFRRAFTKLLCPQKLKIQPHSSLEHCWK

Acetylcholinesterase [3] = target: T1, Acetylcholinesterase; assay: Inhibition of human AChE at 100 uM
[4] = target: Cholinesterase (Equus caballus) (UniProt P81908); assay: Inhibition of equine serum BChE at 50 uM
Sequence of Cholinesterase (Equus caballus) (P81908 whole entry): as the sequence (P81908 whole entry) above

[5] = target: Acetylcholinesterase (Electrophorus electricus) (UniProt O42275); assay: Inhibition of electric eel AChE at 50 uM
Sequence of Acetylcholinesterase (Electrophorus electricus) (O42275 24-633 limits assumed): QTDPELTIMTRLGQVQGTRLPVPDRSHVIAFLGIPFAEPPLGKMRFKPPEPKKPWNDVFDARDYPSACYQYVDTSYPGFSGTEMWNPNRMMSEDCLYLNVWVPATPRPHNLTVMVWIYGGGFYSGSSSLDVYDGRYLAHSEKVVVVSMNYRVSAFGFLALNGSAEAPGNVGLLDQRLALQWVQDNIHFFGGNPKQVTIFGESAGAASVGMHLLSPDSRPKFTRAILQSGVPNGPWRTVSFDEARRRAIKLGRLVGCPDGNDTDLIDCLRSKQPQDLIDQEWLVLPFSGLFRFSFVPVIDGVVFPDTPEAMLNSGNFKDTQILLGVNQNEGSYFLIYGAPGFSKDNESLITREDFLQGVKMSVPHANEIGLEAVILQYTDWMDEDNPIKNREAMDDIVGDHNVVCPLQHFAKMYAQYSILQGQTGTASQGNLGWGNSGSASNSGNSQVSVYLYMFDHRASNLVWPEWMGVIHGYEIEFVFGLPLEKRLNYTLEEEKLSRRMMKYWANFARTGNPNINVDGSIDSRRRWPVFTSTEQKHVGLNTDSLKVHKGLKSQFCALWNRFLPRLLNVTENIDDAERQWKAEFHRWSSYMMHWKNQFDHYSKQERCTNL

SMILES | IC50 (Acetylcholinesterase [1]) | IC50 (Acetylcholinesterase [2]) [nM] | IC50 (Cholinesterase) | also measured
O=c1c2cc(OCCCN3CCCCC3)ccc2nc2n1CCCCC2 | 820 nM | 43 | 12700 nM | 
O=c1c2cc(OCCCN3CCCCCC3)ccc2nc2n1CCCC2 |  | 58.5 | 1770 nM and 2670 nM | 
O=c1c2cc(OCCCN3CCCCC3)ccc2nc2n1Cc1ccccc1-2 | 143 nM and 142 nM | 6.9 |  | 
O=c1c2cc(OCCCN3CCCC3)ccc2nc2n1CCc1ccccc1-2 |  | 91.1 |  | 
O=c1c2cc(OCCCN3CCCC3)ccc2nc2n1CCCCC2 |  | 295 | 12200 nM | 
O=c1c2cc(OCCCN3CCCCC3)ccc2nc2n1CCCc1ccccc1-2 | 535 nM | 57.1 | 2670 nM | 
O=c1c2cc(OCCCN3CCc4ccccc4C3)ccc2nc2n1CCCC2 |  | 723 | 5490 nM | 
O=c1c2cc(OCCCN3CCCCCC3)ccc2nc2n1CCC2 |  | 50.2 | 5220 nM | 
O=c1c2cc(OCCCN3CCCC3)ccc2nc2n1Cc1ccccc1-2 |  | 16.2 | 2400 nM | 
CCN(CC)CCCOc1ccc2nc3n(c(=O)c2c1)CCCCC3 | 12100 nM | 50.6 | 10800 nM | 
CCN(CC)CCCOc1ccc2nc3n(c(=O)c2c1)CCCc1ccccc1-3 | 4200 nM | 72.1 | 5100 nM | 
CCN(CC)CCCOc1ccc2nc3n(c(=O)c2c1)CCCC3 | 1500 nM | 43 | 9140 nM | 
O=c1c2cc(OCCCn3ccnc3)ccc2nc2n1CCC2 |  | 1900 | 14600 nM | 
CCN(CC)CCCOc1ccc2nc3n(c(=O)c2c1)CCc1ccccc1-3 | 669 nM | 47.5 | 2160 nM | 
O=c1c2cc(OCCCn3ccnc3)ccc2nc2n1Cc1ccccc1-2 |  | 454 | 9110 nM | 
O=c1c2cc(OCCCN3CCCCCC3)ccc2nc2n1CCc1ccccc1-2 |  | 13 | 584 nM | 
O=c1c2cc(OCCCn3ccnc3)ccc2nc2n1CCc1ccccc1-2 |  | 2440 | 8680 nM | 
O=c1c2cc(OCCCN3CCc4ccccc4C3)ccc2nc2n1CCC2 |  | 868 | 776 nM | 
O=c1c2cc(OCCCN3CCCCCC3)ccc2nc2n1CCCCC2 |  | 39.2 | 1800 nM | 
c1cc2c(cc1OCCCN1CCCCC1)CN1CCCC1=N2 | 33.9 nM | 66.5 |  | Ki (Histamine H3 receptor): 76.2 nM

SMILES | IC50 (Acetylcholinesterase [1]) | IC50 (Acetylcholinesterase [2]) [nM] | IC50 (Cholinesterase) | also measured
O=c1c2cc(OCCCN3CCCCCC3)ccc2nc2n1CCCc1ccccc1-2 |  | 53.4 | 865 nM | 
O=c1c2cc(OCCCn3ccnc3)ccc2nc2n1CCCC2 |  | 4240 | 50000 nM and 59000 nM | 
CCN(CC)CCCOc1ccc2nc3n(c(=O)c2c1)Cc1ccccc1-3 | 200 nM | 11 | 1880 nM | 
CCN(CC)CCCOc1ccc2nc3n(c(=O)c2c1)CCC3 | 1200 nM | 101 | 829 nM | 
O=c1c2cc(OCCCN3CCCC3)ccc2nc2n1CCC2 |  | 50 | 10600 nM | 
O=c1c2cc(OCCCN3CCCCC3)ccc2nc2n1CCC2 | 1100 nM | 69.2 | 122000 nM | 
O=c1c2cc(OCCCN3CCc4ccccc4C3)ccc2nc2n1CCCc1ccccc1-2 |  | 1190 | 1840 nM | 
O=c1c2cc(OCCCN3CCCCC3)ccc2nc2n1CCCC2 | 225 nM | 33.3 | 6550 nM | 
O=c1c2cc(OCCCN3CCc4ccccc4C3)ccc2nc2n1CCCCC2 |  | 653 | 3030 nM | 
O=c1c2cc(OCCCN3CCCC3)ccc2nc2n1CCCC2 |  | 210 | 16100 nM | 
O=c1c2cc(OCCCN3CCCCC3)ccc2nc2n1CCc1ccccc1-2 | 217 nM and 216 nM | 5.5 | 955 nM | 
O=c1c2cc(OCCCC3CCCCC3)ccc2nc2n1Cc1ccccc1-2 |  |  |  | inhibition (Acetylcholinesterase [3]): 35%; inhibition [4]: inactive; inhibition [5]: 34%
O=c1c2cc(OCCCCCCCCCN3CCCCC3)ccc2nc2n1CCC2 |  | 390 | 8600 nM | 
O=c1c2cc(OCCCN3CCCCCC3)ccc2nc2n1Cc1ccccc1-2 |  | 5 | 1870 nM | 
O=c1c2cc(OCCCN3CCc4ccccc4C3)ccc2nc2n1Cc1ccccc1-2 |  | 227 | 1730 nM | 
O=c1c2cc(OCCCN3CCc4ccccc4C3)ccc2nc2n1CCc1ccccc1-2 |  | 625 | 1830 nM | 
O=c1c2cc(OCCCN3CCCC3)ccc2nc2n1CCCc1ccccc1-2 |  | 529 | 3610 nM | 
O=c1c2cc(OCCCn3ccnc3)ccc2nc2n1CCCCC2 |  | 3950 | 59800 nM | 
O=c1c2cc(OCCCn3ccnc3)ccc2nc2n1CCCc1ccccc1-2 | 56500 nM | 10300 | 52000 nM | 
